# Measured values: patent US10792289B2 (Horizon Orphan LLC, priority 2009, dated 2020)
# Columns and labels:
# stable CF patients [1] = assay: Phase 2 study: time to need for anti-pseudomonal antimicrobials; type: in vivo, human; conditions: for Patients Requiring Anti-Pseudomonal Antimicrobials: EE population; for Number (%) of Patients Requiring Anti-Pseudomonal Antimicrobials: MITT population
# Method: (§1) The following dosage regimens (as nebulizer loaded doses) were evaluated: 120 mg QD (daily); 240 mg QD (daily); and 240 mg BID (twice daily).
# Efficacy endpoints including clinical endpoints, pulmonary function tests, and additional microbiological parameters were assessed as change from Day 1 to subsequent visits where the endpoint data was collected. Time to need for intravenous/oral/inhaled anti-pseudomonal antimicrobials were assessed from Day 1 until final visit using survival analysis. The primary population for efficacy analysis was the EE population, but efficacy endpoints were also analyzed using the MITT population.
# Time to administration of intravenous/oral/inhaled anti-pseudomonal antimicrobials from Day 1 until Final visit was measured for patients with at least one of the following: decreased exercise tolerance, increased cough, increased sputum/chest congestion, and decreased appetite. The proportion of patients requiring anti-pseudomonal antimicrobials (inhaled or systemic) over time was analyzed using a Cox proportional hazards model.
# stable CF patients [2] = assay: Phase 2 study: CFQ-R questionnaire; type: in vivo, human
# Method: as §1
# Patients were assessed on Day 1, 7, 14, and 28, and then up to 28 days after completion of study drug, namely, Days 42 and 56. The end of the study was defined as the last visit of the last patient.
# Efficacy was evaluated by microbiologic assessment of sputum samples, time to need for anti-pseudomonal antimicrobials, the Cystic Fibrosis Questionaire-Revised (CFQ-R), and pulmonary function tests. […] Pair-wise comparisons between all the treatment arms were conducted as secondary analyses.
# Patients completed the CFQ-R questionnaire with domains that included: respiratory, body image, digestion, eating, emotion, health perception, physical, role/school, social, treatment burden, vitality, and weight.
# [3] = EE population, Combined 240 mg QD and BID
smiles,measurement,setting,value
"C[C@H]1COc2c(N3CCN(C)CC3)c(F)cc3c(=O)c(C(=O)O)cn1c23 [Levofloxacin, levofloxacin]",Patients Requiring Anti-Pseudomonal Antimicrobials,stable CF patients [1]; 120 mg QD,20.0%
same,Patients Requiring Anti-Pseudomonal Antimicrobials,stable CF patients [1]; 240 mg BID,20.6%
same,Patients Requiring Anti-Pseudomonal Antimicrobials,stable CF patients [1]; 240 mg QD,25.7%
same,Patients Requiring Anti-Pseudomonal Antimicrobials,stable CF patients [1]; Combined 240 mg QD and BID,23.2%
same,Number (%) of Patients Requiring Anti-Pseudomonal Antimicrobials,stable CF patients [1]; 120 mg QD,18.4%
same,Number (%) of Patients Requiring Anti-Pseudomonal Antimicrobials,stable CF patients [1]; 240 mg BID,20.5%
same,Number (%) of Patients Requiring Anti-Pseudomonal Antimicrobials,stable CF patients [1]; 240 mg QD,27.0%
same,Number (%) of Patients Requiring Anti-Pseudomonal Antimicrobials,stable CF patients [1]; Combined 240 mg QD and BID,23.7%
same,"Respiratory domain of CFQ-R, Change from Baseline to Day 14, Mean","stable CF patients [2]; EE population, 120 mg QD",4.3
same,"Respiratory domain of CFQ-R, Change from Baseline to Day 14, Median","stable CF patients [2]; EE population, 120 mg QD",5.5
same,"Respiratory domain of CFQ-R, Change from Baseline to Day 28, Mean","stable CF patients [2]; EE population, 120 mg QD",1.6
same,"Respiratory domain of CFQ-R, Change from Baseline to Day 28, Median","stable CF patients [2]; EE population, 120 mg QD",0.0
same,"Respiratory domain of CFQ-R, Day 1, Mean","stable CF patients [2]; EE population, 120 mg QD",63.5
same,"Respiratory domain of CFQ-R, Day 1, Median","stable CF patients [2]; EE population, 120 mg QD",66.7
same,"Respiratory domain of CFQ-R, Day 14, Mean","stable CF patients [2]; EE population, 120 mg QD",67.8
same,"Respiratory domain of CFQ-R, Day 14, Median","stable CF patients [2]; EE population, 120 mg QD",66.7
same,"Respiratory domain of CFQ-R, Day 28, Mean","stable CF patients [2]; EE population, 120 mg QD",65.1
same,"Respiratory domain of CFQ-R, Day 28, Median","stable CF patients [2]; EE population, 120 mg QD",66.7
same,"Respiratory domain of CFQ-R, Change from Baseline to Day 14, Mean","stable CF patients [2]; EE population, 240 mg BID",8.5
same,"Respiratory domain of CFQ-R, Change from Baseline to Day 14, Median","stable CF patients [2]; EE population, 240 mg BID",5.6
same,"Respiratory domain of CFQ-R, Change from Baseline to Day 28, Mean","stable CF patients [2]; EE population, 240 mg BID",5.2
same,"Respiratory domain of CFQ-R, Change from Baseline to Day 28, Median","stable CF patients [2]; EE population, 240 mg BID",5.5
same,"Respiratory domain of CFQ-R, Day 1, Mean","stable CF patients [2]; EE population, 240 mg BID",60.3
same,"Respiratory domain of CFQ-R, Day 1, Median","stable CF patients [2]; EE population, 240 mg BID",61.1
same,"Respiratory domain of CFQ-R, Day 14, Mean","stable CF patients [2]; EE population, 240 mg BID",68.8
same,"Respiratory domain of CFQ-R, Day 14, Median","stable CF patients [2]; EE population, 240 mg BID",72.2
same,"Respiratory domain of CFQ-R, Day 28, Mean","stable CF patients [2]; EE population, 240 mg BID",66.0
same,"Respiratory domain of CFQ-R, Day 28, Median","stable CF patients [2]; EE population, 240 mg BID",72.2
same,"Respiratory domain of CFQ-R, Change from Baseline to Day 14, Mean","stable CF patients [2]; EE population, 240 mg QD",2.1
same,"Respiratory domain of CFQ-R, Change from Baseline to Day 14, Median","stable CF patients [2]; EE population, 240 mg QD",0.0
same,"Respiratory domain of CFQ-R, Change from Baseline to Day 28, Mean","stable CF patients [2]; EE population, 240 mg QD",1.0
same,"Respiratory domain of CFQ-R, Change from Baseline to Day 28, Median","stable CF patients [2]; EE population, 240 mg QD",0.0
same,"Respiratory domain of CFQ-R, Day 1, Mean","stable CF patients [2]; EE population, 240 mg QD",60.8
same,"Respiratory domain of CFQ-R, Day 1, Median","stable CF patients [2]; EE population, 240 mg QD",61.1
same,"Respiratory domain of CFQ-R, Day 14, Mean","stable CF patients [2]; EE population, 240 mg QD",63.2
same,"Respiratory domain of CFQ-R, Day 14, Median","stable CF patients [2]; EE population, 240 mg QD",66.7
same,"Respiratory domain of CFQ-R, Day 28, Mean","stable CF patients [2]; EE population, 240 mg QD",61.7
same,"Respiratory domain of CFQ-R, Day 28, Median","stable CF patients [2]; EE population, 240 mg QD",66.7
same,"Respiratory domain of CFQ-R, Change from Baseline to Day 14, Mean",stable CF patients [2]; [3],5.3
same,"Respiratory domain of CFQ-R, Change from Baseline to Day 14, Median",stable CF patients [2]; [3],5.6
same,"Respiratory domain of CFQ-R, Change from Baseline to Day 28, Mean",stable CF patients [2]; [3],3.0
same,"Respiratory domain of CFQ-R, Change from Baseline to Day 28, Median",stable CF patients [2]; [3],0.0
same,"Respiratory domain of CFQ-R, Day 1, Mean",stable CF patients [2]; [3],60.5
same,"Respiratory domain of CFQ-R, Day 1, Median",stable CF patients [2]; [3],61.1
same,"Respiratory domain of CFQ-R, Day 14, Mean",stable CF patients [2]; [3],66.0
same,"Respiratory domain of CFQ-R, Day 14, Median",stable CF patients [2]; [3],66.7
same,"Respiratory domain of CFQ-R, Day 28, Mean",stable CF patients [2]; [3],63.8
same,"Respiratory domain of CFQ-R, Day 28, Median",stable CF patients [2]; [3],66.7
same,"CFQ-R respiratory, mean change from baseline","stable CF patients [2]; EE, 120 mg QD, Baseline to Day 28",1.0 units
same,"Respiratory domain of CFQ-R, Change from Baseline to Day 14, Mean","stable CF patients [2]; MITT population, 120 mg QD",4.5
same,"Respiratory domain of CFQ-R, Change from Baseline to Day 14, Median","stable CF patients [2]; MITT population, 120 mg QD",5.5
same,"Respiratory domain of CFQ-R, Change from Baseline to Day 28, Mean","stable CF patients [2]; MITT population, 120 mg QD",2.0
same,"Respiratory domain of CFQ-R, Change from Baseline to Day 28, Median","stable CF patients [2]; MITT population, 120 mg QD",0.0
same,"Respiratory domain of CFQ-R, Day 1, Mean","stable CF patients [2]; MITT population, 120 mg QD",62.3
same,"Respiratory domain of CFQ-R, Day 1, Median","stable CF patients [2]; MITT population, 120 mg QD",61.1
same,"Respiratory domain of CFQ-R, Day 14, Mean","stable CF patients [2]; MITT population, 120 mg QD",67.1
same,"Respiratory domain of CFQ-R, Day 14, Median","stable CF patients [2]; MITT population, 120 mg QD",66.7
same,"Respiratory domain of CFQ-R, Day 28, Mean","stable CF patients [2]; MITT population, 120 mg QD",64.6
